This assay concerns the target T1, MATK (HYL) (Homo sapiens, UniProt P42679).
T1 construct: purchased Thermo Fisher Scientific (Life Technologies) SelectScreen
Nature of the assay: SelectScreen Z'LYTE. It is filed as biochemical. Put shortly: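 NU5455 was profiled across the SelectScreen Broad panel of kinase activity and binding assays. Z'LYTE reactions such as CSF1R ran at apparent Km ATP, while the Adapta CAMK1 assay used ATP listed as 10. Values are given as percent.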

The results in this text go back to PMC6934184, “Selective DNA-PKcs inhibition extends the therapeutic index of localized radiotherapy and chemotherapy” (The Journal of Clinical Investigation, 2019).

T1 sequence (P42679 whole entry): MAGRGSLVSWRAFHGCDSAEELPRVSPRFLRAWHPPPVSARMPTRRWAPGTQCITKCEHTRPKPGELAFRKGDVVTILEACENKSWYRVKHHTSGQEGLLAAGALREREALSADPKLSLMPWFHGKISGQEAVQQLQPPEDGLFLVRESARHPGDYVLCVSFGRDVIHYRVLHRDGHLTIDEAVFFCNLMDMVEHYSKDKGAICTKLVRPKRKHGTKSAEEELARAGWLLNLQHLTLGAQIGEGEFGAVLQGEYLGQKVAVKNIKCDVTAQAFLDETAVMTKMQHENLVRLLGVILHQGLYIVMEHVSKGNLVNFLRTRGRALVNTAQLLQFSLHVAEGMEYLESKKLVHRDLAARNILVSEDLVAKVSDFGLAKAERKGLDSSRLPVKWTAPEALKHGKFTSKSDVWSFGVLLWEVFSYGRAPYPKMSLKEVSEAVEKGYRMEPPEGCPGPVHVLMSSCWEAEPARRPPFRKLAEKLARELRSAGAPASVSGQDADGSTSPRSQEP

What is called inhibition is the relative decrease from the control value, in per cent. For `CN(C(=O)CN1CCOCC1)c1ccc2sc3c(-c4cccc5c(=O)cc(N6CC7CCC(C6)O7)oc45)cccc3c2c1` [NU5455], the inhibition at 1 µM is -6.3%.
